Several values for one entry are separate records, joined by “and”; a condition that tells them apart may be missing. Equal values may be shown once. HELM strings list units from the 5' end as sugar, base in round brackets, then linkage (d deoxyribose, r ribose, m 2'-O-methyl, p phosphodiester). Strings are as the collection lists them, not checked against the first reports. ss, as = sense and antisense strand; [una] = unlocked nucleic acid; [fl2r] = 2'-fluoro
Conditions: siRNA
Note: test system not given here.

Substance	target mRNA knockdown
RNA1{r(G)p.r(U)p.r(A)p.r(U)p.r(G)p.r(A)p.r(C)p.r(C)p.r(G)p.r(A)p.r(C)p.r(U)p.r(A)p.r(C)p.r(G)p.r(C)p.r(G)p.r(U)p.r(A)p.r(T)p.r(T)}|RNA2{r(U)p.r(U)p.r(C)p.r(A)p.r(G)p.r(U)p.r(G)p.r(U)p.r(G)p.r(A)p.r(U)p.[una](G)p.r(A)p.r(C)p.r(A)p.r(C)p.r(U)p.r(U)p.r(G)p.r(T)p.r(T)}$$$RNA1{StrandType:ss}|RNA2{StrandType:as}$	59%
RNA1{r(G)p.r(U)p.r(A)p.r(U)p.r(G)p.r(A)p.r(C)p.r(C)p.r(G)p.r(A)p.r(C)p.r(U)p.r(A)p.r(C)p.r(G)p.r(C)p.r(G)p.r(U)p.r(A)p.r(T)p.r(T)}|RNA2{r(U)p.r(U)p.r(C)p.r(A)p.r(G)p.r(U)p.r(G)p.r(U)p.r(G)p.r(A)p.r(U)p.r(G)p.[una](A)p.r(C)p.r(A)p.r(C)p.r(U)p.r(U)p.r(G)p.r(T)p.r(T)}$$$RNA1{StrandType:ss}|RNA2{StrandType:as}$	74%
RNA1{r(G)p.r(U)p.r(A)p.r(U)p.r(G)p.r(A)p.r(C)p.r(C)p.r(G)p.r(A)p.r(C)p.r(U)p.r(A)p.r(C)p.r(G)p.r(C)p.r(G)p.r(U)p.r(A)p.r(T)p.r(T)}|RNA2{r(U)p.r(U)p.r(C)p.r(A)p.r(G)p.r(U)p.r(G)p.r(U)p.r(G)p.r(A)p.r(U)p.r(G)p.r(A)p.[una](C)p.r(A)p.r(C)p.r(U)p.r(U)p.r(G)p.r(T)p.r(T)}$$$RNA1{StrandType:ss}|RNA2{StrandType:as}$	64%
RNA1{r(G)p.r(U)p.r(A)p.r(U)p.r(G)p.r(A)p.r(C)p.r(C)p.r(G)p.r(A)p.r(C)p.r(U)p.r(A)p.r(C)p.r(G)p.r(C)p.r(G)p.r(U)p.r(A)p.r(T)p.r(T)}|RNA2{r(U)p.r(U)p.r(C)p.r(A)p.r(G)p.r(U)p.r(G)p.r(U)p.r(G)p.r(A)p.r(U)p.r(G)p.r(A)p.r(C)p.[una](A)p.r(C)p.r(U)p.r(U)p.r(G)p.r(T)p.r(T)}$$$RNA1{StrandType:ss}|RNA2{StrandType:as}$	86%
RNA1{r(G)p.r(U)p.r(A)p.r(U)p.r(G)p.r(A)p.r(C)p.r(C)p.r(G)p.r(A)p.r(C)p.r(U)p.r(A)p.r(C)p.r(G)p.r(C)p.r(G)p.r(U)p.r(A)p.r(T)p.r(T)}|RNA2{r(U)p.r(U)p.r(C)p.r(A)p.r(G)p.r(U)p.r(G)p.r(U)p.r(G)p.r(A)p.r(U)p.r(G)p.r(A)p.r(C)p.r(A)p.[una](C)p.r(U)p.r(U)p.r(G)p.r(T)p.r(T)}$$$RNA1{StrandType:ss}|RNA2{StrandType:as}$	29%
RNA1{r(G)p.r(U)p.r(A)p.r(U)p.r(G)p.r(A)p.r(C)p.r(C)p.r(G)p.r(A)p.r(C)p.r(U)p.r(A)p.r(C)p.r(G)p.r(C)p.r(G)p.r(U)p.r(A)p.r(T)p.r(T)}|RNA2{r(U)p.r(U)p.r(C)p.r(A)p.r(G)p.r(U)p.r(G)p.r(U)p.r(G)p.r(A)p.r(U)p.r(G)p.r(A)p.r(C)p.r(A)p.r(C)p.[una](U)p.r(U)p.r(G)p.r(T)p.r(T)}$$$RNA1{StrandType:ss}|RNA2{StrandType:as}$	87%
RNA1{r(G)p.r(U)p.r(A)p.r(U)p.r(G)p.r(A)p.r(C)p.r(C)p.r(G)p.r(A)p.r(C)p.r(U)p.r(A)p.r(C)p.r(G)p.r(C)p.r(G)p.r(U)p.r(A)p.r(T)p.r(T)}|RNA2{r(U)p.r(U)p.r(C)p.r(A)p.r(G)p.r(U)p.r(G)p.r(U)p.r(G)p.r(A)p.r(U)p.r(G)p.r(A)p.r(C)p.r(A)p.r(C)p.r(U)p.[una](U)p.r(G)p.r(T)p.r(T)}$$$RNA1{StrandType:ss}|RNA2{StrandType:as}$	91%
RNA1{r(G)p.r(U)p.r(A)p.r(U)p.r(G)p.r(A)p.r(C)p.r(C)p.r(G)p.r(A)p.r(C)p.r(U)p.r(A)p.r(C)p.r(G)p.r(C)p.r(G)p.r(U)p.r(A)p.r(T)p.r(T)}|RNA2{r(U)p.r(U)p.r(C)p.r(A)p.r(G)p.r(U)p.r(G)p.r(U)p.r(G)p.r(A)p.r(U)p.r(G)p.r(A)p.r(C)p.r(A)p.r(C)p.r(U)p.r(U)p.[una](G)p.r(T)p.r(T)}$$$RNA1{StrandType:ss}|RNA2{StrandType:as}$	82%
RNA1{r(G)p.r(U)p.r(A)p.r(U)p.r(G)p.r(A)p.r(C)p.r(C)p.r(G)p.r(A)p.r(C)p.r(U)p.r(A)p.r(C)p.r(G)p.r(C)p.r(G)p.r(U)p.r(A)p.r(T)p.r(T)}|RNA2{r(U)p.r(U)p.r(C)p.r(A)p.r(G)p.r(U)p.r(G)p.r(U)p.r(G)p.r(A)p.r(U)p.r(G)p.r(A)p.r(C)p.r(A)p.r(C)p.r(U)p.r(U)p.r(G)p.[una](T)p.[una](T)}$$$RNA1{StrandType:ss}|RNA2{StrandType:as}$	81%
RNA1{r(G)p.r(U)p.r(A)p.r(U)p.r(U)p.r(G)p.r(A)p.r(C)p.r(A)p.r(G)p.r(C)p.r(U)p.r(A)p.r(U)p.r(U)p.r(C)p.r(G)p.r(A)p.r(A)p.d(T)p.d(T)}|RNA2{r(U)p.r(U)p.r(C)p.r(G)p.r(A)p.r(A)p.r(U)p.r(A)p.r(G)p.r(C)p.r(U)p.r(G)p.r(U)p.r(C)p.r(A)p.r(A)p.r(U)p.r(A)p.r(C)p.d(T)p.d(T)}$$$RNA1{StrandType:ss}|RNA2{StrandType:as}$	73%
RNA1{r(G)p.r(U)p.r(C)p.m(U)p.r(A)p.m(U)p.r(G)p.r(C)p.m(C)p.r(A)p.r(A)p.r(G)p.r(A)p.r(A)p.r(G)p.r(G)p.r(G)p.r(A)p.r(G)p.r(T)p.r(T)}|RNA2{r(C)p.r(U)p.r(C)p.r(C)p.r(C)p.r(U)p.r(U)p.r(C)p.r(U)p.m(U)p.r(G)p.r(G)p.m(C)p.r(A)p.m(U)p.r(A)p.r(G)p.r(A)p.r(C)p.r(T)p.r(T)}$$$RNA1{StrandType:ss}|RNA2{StrandType:as}$	72%
RNA1{r(G)p.r(U)p.r(C)p.m(U)p.r(A)p.r(U)p.r(G)p.r(C)p.r(C)p.r(A)p.r(A)p.r(G)p.r(A)p.r(A)p.r(G)p.r(G)p.r(G)p.r(A)p.r(G)p.r(T)p.r(T)}|RNA2{r(C)p.r(U)p.r(C)p.r(C)p.r(C)p.r(U)p.r(U)p.r(C)p.r(U)p.r(U)p.r(G)p.r(G)p.r(C)p.r(A)p.m(U)p.r(A)p.r(G)p.r(A)p.r(C)p.r(T)p.r(T)}$$$RNA1{StrandType:ss}|RNA2{StrandType:as}$	76%
RNA1{r(G)p.r(U)p.r(G)p.r(A)p.r(A)p.r(G)p.r(U)p.r(C)p.r(A)p.r(A)p.r(C)p.r(A)p.r(U)p.r(G)p.r(C)p.r(C)p.r(U)p.r(G)p.r(C)p.d(T)p.d(T)}|RNA2{r(G)p.r(C)p.r(A)p.r(G)p.r(G)p.r(C)p.r(A)p.r(U)p.r(G)p.r(U)p.r(U)p.r(G)p.r(A)p.r(C)p.r(U)p.r(U)p.r(C)p.r(A)p.r(C)p.d(T)p.d(T)}$$$RNA1{StrandType:ss}|RNA2{StrandType:as}$	50% and 70%
RNA1{r(G)p.r(U)p.r(U)p.[fl2r](C)p.r(A)p.r(C)p.r(G)p.r(U)p.r(C)p.r(C)p.[fl2r](U)p.r(A)p.r(C)p.r(C)p.r(C)p.r(C)p.r(U)p.r(U)p.r(U)p.r(T)p.r(T)}|RNA2{r(A)p.r(A)p.r(A)p.r(G)p.r(G)p.r(G)p.r(G)p.[fl2r](U)p.r(A)p.r(G)p.r(G)p.r(A)p.r(C)p.r(G)p.[fl2r](U)p.r(G)p.r(A)p.r(A)p.r(C)p.r(T)p.r(T)}$$$RNA1{StrandType:ss}|RNA2{StrandType:as}$	65%
RNA1{r(G)p.r(U)p.r(U)p.r(C)p.r(A)p.r(C)p.r(G)p.r(U)p.r(C)p.r(C)p.r(U)p.r(A)p.r(C)p.r(C)p.r(C)p.r(C)p.r(U)p.r(U)p.r(U)p.r(T)p.r(T)}|RNA2{r(A)p.r(A)p.r(A)p.r(G)p.r(G)p.r(G)p.r(G)p.[fl2r](U)p.r(A)p.r(G)p.r(G)p.r(A)p.r(C)p.r(G)p.r(U)p.r(G)p.r(A)p.r(A)p.r(C)p.r(T)p.r(T)}$$$RNA1{StrandType:ss}|RNA2{StrandType:as}$	69%
RNA1{r(U)p.[fl2r](U)p.r(A)p.r(C)p.r(C)p.r(C)p.r(C)p.r(G)p.r(A)p.r(U)p.r(U)p.[fl2r](C)p.r(A)p.r(G)p.r(C)p.r(C)p.r(U)p.r(C)p.r(U)p.r(T)p.r(T)}|RNA2{r(A)p.r(G)p.r(A)p.r(G)p.r(G)p.r(C)p.[fl2r](U)p.r(G)p.r(A)p.r(A)p.r(U)p.r(C)p.r(G)p.r(G)p.r(G)p.r(G)p.[fl2r](U)p.r(A)p.r(A)p.r(T)p.r(T)}$$$RNA1{StrandType:ss}|RNA2{StrandType:as}$	82%
RNA1{r(U)p.[fl2r](U)p.r(A)p.r(C)p.r(C)p.r(C)p.r(C)p.r(G)p.r(A)p.r(U)p.r(U)p.r(C)p.r(A)p.r(G)p.r(C)p.r(C)p.r(U)p.r(C)p.r(U)p.r(T)p.r(T)}|RNA2{r(A)p.r(G)p.r(A)p.r(G)p.r(G)p.r(C)p.r(U)p.r(G)p.r(A)p.r(A)p.r(U)p.r(C)p.r(G)p.r(G)p.r(G)p.r(G)p.r(U)p.[fl2r](A)p.r(A)p.r(T)p.r(T)}$$$RNA1{StrandType:ss}|RNA2{StrandType:as}$	69%
RNA1{r(U)p.m(U)p.m(A)p.r(A)p.r(A)p.r(G)p.m(G)p.r(G)p.r(C)p.r(G)p.r(A)p.r(G)p.r(A)p.r(A)p.r(G)p.r(A)p.r(C)p.r(C)p.r(G)p.r(T)p.r(T)}|RNA2{r(C)p.r(G)p.r(G)p.r(U)p.r(C)p.r(U)p.r(U)p.r(C)p.r(U)p.r(C)p.r(G)p.r(C)p.r(C)p.r(C)p.r(U)p.r(U)p.m(U)p.r(A)p.r(A)p.r(T)p.r(T)}$$$RNA1{StrandType:ss}|RNA2{StrandType:as}$	85%
RNA1{r(U)p.m(U)p.m(G)p.r(G)p.r(G)p.r(G)p.m(A)p.m(A)p.r(G)p.r(C)p.r(G)p.r(G)p.r(C)p.r(C)p.r(G)p.r(G)p.r(C)p.r(G)p.r(G)p.r(T)p.r(T)}|RNA2{r(C)p.r(C)p.r(G)p.r(C)p.r(C)p.r(G)p.r(G)p.r(C)p.r(C)p.r(G)p.r(C)p.r(U)p.r(U)p.r(C)p.r(C)p.r(C)p.m(C)p.r(A)p.r(A)p.r(T)p.r(T)}$$$RNA1{StrandType:ss}|RNA2{StrandType:as}$	78%
RNA1{r(U)p.m(U)p.r(A)p.m(C)p.r(A)p.r(A)p.r(A)p.m(G)p.m(G)p.r(A)p.r(U)p.r(C)p.r(U)p.r(C)p.r(C)p.r(U)p.r(C)p.r(C)p.r(C)p.r(T)p.r(T)}|RNA2{r(G)p.r(G)p.r(G)p.r(A)p.r(G)p.r(G)p.r(A)p.r(G)p.r(A)p.r(U)p.r(C)p.r(C)p.r(U)p.r(U)p.m(U)p.r(G)p.m(U)p.r(A)p.r(A)p.r(T)p.r(T)}$$$RNA1{StrandType:ss}|RNA2{StrandType:as}$	72%
